Read-outs that look alike come from different tables or passages of the source. Values belong to the compound of their own block, whether it stands above or below them.
What was measured:
HUVEC = HUVEC proliferation (MTS); type: cell-based, human
From the text: In vivo angiogenesis is dependent on endothelial cell proliferation; therefore, the inhibition of HUVEC proliferation is commonly utilized as an early stage in vitro model of anti-angiogenic activity. […] Under normal conditions, HUVECs plated and grown on Matrigel migrate towards each other, align, and form tubes that resemble in vivo capillary beds. This assay is generally considered a more robust model of angiogenesis as it requires several aspects of proper vessel formation, including adhesion, migration, and tube formation.
HUVEC Cell Viability and Proliferation. HUVEC cell viability and proliferation will be assessed by measuring cellular metabolic activity using MTT (viability) or MTS (proliferation) according to the manufacturer's instructions. HUVECs (3000 cells/well) are seeded in a 96-well plate and allowed to attach overnight. […] For viability, the final value is a corrected optical density (570 nm-690 nm). All viability and GI50 values are from a minimum of three separate experiments performed in triplicate.
HUVEC Cell Viability and Proliferation. HUVEC cell proliferation was assessed by measuring cellular metabolic activity using standard MTS/PMS protocols according to manufacturer's instructions. Briefly, HUVECs (3,000 cells/well) were seeded in a 96-well plate and allowed to attach overnight. Cells were treated with varying concentrations of drug as indicated and proliferation was assessed after 72 h with MTS.

[1] = tested on: Hh signaling (Gli1 mRNA) in C3H10T1/2 cells; assay: Down-regulation of endogenous Gli1 mRNA in Hh-dependent C3H10T1/2 cells; type: cell-based, mouse; details: for mrna remaining at 1 µM / IC50: Mus musculus; for mrna remaining at 1 µM: read-out: % Gli expression (1 μM)
Protocol: To determine whether the triazole functionality was required for inhibition of Hh signaling, the ability of Analogue 1 to down-regulate the well-characterized Hh pathway target gene Gli1 in the Hh-dependent C3H10T1/2 cell line was determined. In this cellular model, activation of the pathway with exogenous recombinant Hh ligand results in a characteristic up-regulation of Gli1 mRNA, while concomitant administration of a pathway inhibitor reduces Gli1 expression.
(§1) General Information. Protocols for general cell culture, qPCR and Hh inhibition in C3H10T1/2 and ASZ cells are as previously described.^28 Protocols for the initiation and growth of Math1-Cre-ER; Ptc^fl/fl medulloblastoma tumors, isolation and in vitro culture of MERP MB cells, as wells as the anti-proliferation and qPCR studies performed in these cells were as previously described.^a Sonic Hedgehog (C25II) recombinant mouse protein was purchased from Life Technologies. aData was analyzed using GraphPad Prism 5 and reported values represent mean±SEM for at least two separate experiments performed in triplicate.
(§2) In this well-studied model system for evaluating small molecule inhibition of Hh signaling, addition of an exogenous Hh agonist (recombinant Hh ligand or small molecule) results in a characteristic increase in Gli1 mRNA expression. Concomitant incubation with a pathway inhibitor reduces Gli1 expression. Analogues that reduced Gli1 mRNA levels below 20% in this assay were subsequently evaluated for their ability to reduce Gli1 mRNA expression levels in a concentration-dependent fashion in these cells and the Hh-dependent murine BCC cell line ASZ. In addition, several compounds were evaluated for their anti-proliferative effects in primary Hh-dependent medulloblastoma cells isolated from conditional patched knockout (Math1-Cre-ER; Ptc^fl/fl, MERP) mice. […] Finally, each of these analogues was evaluated for its ability to inhibit proliferation in human umbilical vein […] cells (HUVECs). In vivo angiogenesis is dependent on endothelial cell proliferation; therefore, the inhibition of HUVEC proliferation is commonly utilized as an early stage in vitro model of anti-angiogenic activity.

[2] = tested on: Hh signaling (Gli1 mRNA) in ASZ cells; assay: Down-regulation of endogenous Gli1 mRNA in ASZ cells; type: cell-based, murine; details: Mus musculus
Protocol: as §1, §2

[3] = Homo sapiens, HUVEC, 72 h, read-out: GI50 (μM) HUVEC
[4] = C3H 10T1/2, 1 μM, 24 hr incubation, relative to recombinant Hh ligand control (100%)
[5] = 48 hr incubation, read-out: IC50 (μM) ASZ
[6] = read-out: IC50 down-regulation of Gli1 in ASZ cells
[7] = C3H 10T1/2, 24 hr incubation, read-out: IC50 (μM) C3H10T1/2
[8] = C3H 10T1/2, read-out: inactive in the C3H10T1/2 MEFs at concentrations up to
[9] = Homo sapiens, HUVEC, 72 h, read-out: GI50 (μM) HUVEC, 72 h
[10] = 48 h, read-out: IC50 (μM) ASZ, 48 hr incubation
[11] = C3H 10T1/2, 24 h, read-out: IC50 (μM) C3H10T1/2, 24 hr incubation
[12] = C3H 10T1/2, read-out: IC50 (μM) Gli1-C3Hs

Compound: CCC(C)n1ncn(-c2ccc(N3CCN(c4ccc(OCC5COC(C)(C)O5)cc4)CC3)cc2)c1=O (stereo not drawn) [Compound 5a, 1-(sec-butyl)-4-(4-(4-(4-((2,2-dimethyl-1,3-dioxolan-4-yl)methoxy)phenyl)piperazin-1-yl)phenyl)-1H-1,2,4-triazol-5(4H)-one]
GI50 (HUVEC; [3]): > 100 µM
mrna remaining at 1 µM [1, 4]: 71.4 ± 5.5%

IC50 ([2]; down-regulation of endogenous Gli1 mRNA, read-out: Hh pathway inhibition ASZ): 0.04 ± 0.01 µM
IC50 ([1]; C3H 10T1/2, down-regulation of endogenous Gli1 mRNA, read-out: Hh pathway inhibition C3H10T1/2): 0.082 ± 0.02 µM
Compound: CS(=O)(=O)c1ccc(C(=O)Nc2ccc(Cl)c(-c3ccccn3)c2)c(Cl)c1 [GDC-0449, reference compound]

IC50 [2, 5]: 0.55 ± 0.07 µM
IC50 [2, 6]: 0.55 µM
IC50 [1, 7]: > 10 µM
IC50 [1, 8]: > 10 µM
Compound: CC[C@H](C)n1ncn(-c2ccc(N3CCN(c4ccc(OC[C@H]5CO[C@@](C)(c6ccc(Cl)cc6Cl)O5)cc4)CC3)cc2)c1=O [Compound 15a, 2-((S)-sec-butyl)-4-(4-(4-(4-(((2R,4S)-2-(2,4-dichlorophenyl)-2-methyl-1,3-dioxolan-4-yl)methoxy)phenyl)piperazin-1-yl)phenyl)-2,4-dihydro-3H-1,2,4-triazol-3-one]
GI50 (HUVEC; [3]): 78.3 ± 17.3 µM

Compound: 1-(sec-butyl)-4-(4-(4-(4-((2-(2,4-dichlorophenyl)-2-methyl-1,3-dioxolan-4-yl)methoxy)phenyl)piperazin-1-yl)phenyl)-1H-1,2,4-triazol-5(4H)-one [Compound 2a]
GI50 (HUVEC; read-out: GI50 HUVEC proliferation): 0.49 µM

IC50 [2, 5]: 0.54 ± 0.06 µM
IC50 [2, 6]: 0.54 µM
IC50 [1, 7]: > 10 µM
IC50 [1, 8]: > 10 µM
Compound: CCCn1ncn(-c2ccc(N3CCN(c4ccc(OC[C@H]5CO[C@@](C)(c6ccc(Cl)cc6Cl)O5)cc4)CC3)cc2)c1=O [Compound 25a, 4-(4-(4-(4-(((2R,4S)-2-(2,4-dichlorophenyl)-2-methyl-1,3-dioxolan-4-yl)methoxy)phenyl)piperazin-1-yl)phenyl)-2-propyl-2,4-dihydro-3H-1,2,4-triazol-3-one]
GI50 (HUVEC; [3]): 24.9 ± 2.2 µM

Compound: CC[C@H](C)n1ncn(-c2ccc(N3CCN(c4ccc(OCC5COC(Cn6cncn6)(c6ccc(Cl)cc6Cl)O5)cc4)CC3)cc2)c1=O (stereo partly drawn) [Compound 6a, 4-(4-(4-(4-((2-((1H-1,2,4-triazol-1-yl)methyl)-2-(2,4-dichlorophenyl)-1,3-dioxolan-4-yl)methoxy)phenyl)piperazin-1-yl)phenyl)-2-((S)-sec-butyl)-2,4-dihydro-3H-1,2,4-triazol-3-one]
GI50 (HUVEC; [9]): 2.5 ± 0.3 µM
IC50 [2, 10]: 0.14 ± 0.008 µM
mrna remaining at 1 µM ([1]; C3H 10T1/2, 24 h): 6.9 ± 3.1%
IC50 [1, 11]: 0.16 ± 0.04 µM

Compound: CCC(C)n1ncn(-c2ccc(N3CCN(c4ccc(OCC5COC(C)(Cn6cncn6)O5)cc4)CC3)cc2)c1=O (stereo not drawn) [Compound 4a, 4-(4-(4-(4-((2-((1H-1,2,4-triazol-1-yl)methyl)-2-methyl-1,3-dioxolan-4-yl)methoxy)phenyl)piperazin-1-yl)phenyl)-2-(sec-butyl)-2,4-dihydro-3H-1,2,4-triazol-3-one]
GI50 (HUVEC; [3]): 18.4 ± 4.5 µM
mrna remaining at 1 µM [1, 4]: 61.4 ± 3.5%

Compound: CC(=O)N1CCN(c2ccc(OCC3COC(Cn4ccnc4)(c4ccc(Cl)cc4Cl)O3)cc2)CC1 (stereo not drawn) [ketoconazole, reference compound]
Hh inhibitory activity relative to ITZ ([1]; 1 μM): significant reduction in Hh inhibitory activity

IC50 [2, 5]: 0.38 ± 0.07 µM
IC50 [1, 7]: 0.47 ± 0.001 µM
Compound: CC[C@H](C)n1ncn(-c2ccc(N3CCN(c4ccc(OC[C@@H]5CO[C@@](C)(c6ccc(Cl)cc6Cl)O5)cc4)CC3)cc2)c1=O [Compound 16a, 2-((S)-sec-butyl)-4-(4-(4-(4-(((2R,4R)-2-(2,4-dichlorophenyl)-2-methyl-1,3-dioxolan-4-yl)methoxy)phenyl)piperazin-1-yl)phenyl)-2,4-dihydro-3H-1,2,4-triazol-3-one]
GI50 (HUVEC; [3]): 18.3 ± 11.8 µM

IC50 [2, 5]: 2.5 ± 0.7 µM
IC50 [1, 7]: 1.1 ± 0.17 µM
Compound: CC[C@H](C)n1ncn(-c2ccc(N3CCN(c4ccc(OC[C@H]5CO[C@](C)(c6ccc(Cl)cc6Cl)O5)cc4)CC3)cc2)c1=O [Compound 14a, 2-((S)-sec-butyl)-4-(4-(4-(4-(((2S,4S)-2-(2,4-dichlorophenyl)-2-methyl-1,3-dioxolan-4-yl)methoxy)phenyl)piperazin-1-yl)phenyl)-2,4-dihydro-3H-1,2,4-triazol-3-one]
GI50 (HUVEC; [3]): 7.7 ± 4.4 µM

IC50 ([2]; read-out: IC50 (μM) Gli1-ASZs): 0.1 ± 0.01 µM
IC50 [1, 12]: 0.18 ± 0.02 µM
Compound: C[C@@H](O)Cn1ncn(-c2ccc(N3CCN(c4ccc(OCC5COC(Cn6cncn6)(c6ccc(Cl)cc6Cl)O5)cc4)CC3)cc2)c1=O (stereo partly drawn) [Itz-psz #2 (R−)]

IC50 [2, 5]: 1.4 ± 0.5 µM
IC50 [1, 7]: > 10 µM
Compound: CCCn1ncn(-c2ccc(N3CCN(c4ccc(OC[C@@H]5CO[C@](C)(c6ccc(Cl)cc6Cl)O5)cc4)CC3)cc2)c1=O [Compound 23a, 4-(4-(4-(4-(((2S,4R)-2-(2,4-dichlorophenyl)-2-methyl-1,3-dioxolan-4-yl)methoxy)phenyl)piperazin-1-yl)phenyl)-2-propyl-2,4-dihydro-3H-1,2,4-triazol-3-one]
GI50 (HUVEC; [3]): 49.9 ± 15.9 µM

Compound: CCC(C)n1ncn(-c2ccc(N3CCN(c4ccc(O)cc4)CC3)cc2)c1=O (stereo not drawn) [Compound 45a]
GI50 (HUVEC; 72 h, read-out: GI50 (μM) HUVEC): > 100 µM
% Gli expression (1 μM) ([1]; 1 μM, 24 hr incubation, relative to recombinant Hh ligand control (100%)): 45.7 ± 3.0%

Compound: CC[C@@H](C)n1ncn(-c2ccc(N3CCN(c4ccc(OCC5COC(Cn6cncn6)(c6ccc(Cl)cc6Cl)O5)cc4)CC3)cc2)c1=O (stereo partly drawn) [Compound 7a, 4-(4-(4-(4-((2-((1H-1,2,4-triazol-1-yl)methyl)-2-(2,4-dichlorophenyl)-1,3-dioxolan-4-yl)methoxy)phenyl)piperazin-1-yl)phenyl)-2-((R)-sec-butyl)-2,4-dihydro-3H-1,2,4-triazol-3-one]
GI50 (HUVEC; [9]): 1.7 ± 0.4 µM
IC50 [2, 10]: 0.16 ± 0.07 µM
mrna remaining at 1 µM ([1]; C3H 10T1/2, 24 h): 3 ± 0.9%
IC50 [1, 11]: 0.14 ± 0.04 µM

IC50 ([2]; read-out: IC50 (μM) Gli1-ASZs): 0.15 ± 0.01 µM
IC50 [1, 12]: 0.45 ± 0.09 µM
Compound: C[C@H](O)Cn1ncn(-c2ccc(N3CCN(c4ccc(OCC5COC(Cn6cncn6)(c6ccc(Cl)cc6Cl)O5)cc4)CC3)cc2)c1=O (stereo partly drawn) [Itz-psz #1 (S−)]

Compound: O=[N+]([O-])c1ccc(N2CCN(c3ccc(OCC4COC(Cn5cncn5)(c5ccc(Cl)cc5Cl)O4)cc3)CC2)cc1 (stereo not drawn) [Compound 10a, 1-(4-((2-((1H-1,2,4-triazol-1-yl)methyl)-2-(2,4-dichlorophenyl)-1,3-dioxolan-4-yl)methoxy)phenyl)-4-(4-nitrophenyl)piperazine]
GI50 (HUVEC; [9]): 8.4 ± 0.7 µM
IC50 [2, 10]: 0.09 ± 0.01 µM
mrna remaining at 1 µM ([1]; C3H 10T1/2, 24 h): 1.5 ± 0.05%
IC50 [1, 11]: 0.13 ± 0.03 µM

Compound: CCCn1ncn(-c2ccc(N3CCN(c4ccc(OCC5COC(Cn6cncn6)(c6ccc(Cl)cc6Cl)O5)cc4)CC3)cc2)c1=O (stereo not drawn) [Compound 8a, 4-(4-(4-(4-((2-((1H-1,2,4-triazol-1-yl)methyl)-2-(2,4-dichlorophenyl)-1,3-dioxolan-4-yl)methoxy)phenyl)piperazin-1-yl)phenyl)-1-propyl-1H-1,2,4-triazol-5(4H)-one]
GI50 (HUVEC; [9]): 4.7 ± 0.3 µM
mrna remaining at 1 µM ([1]; C3H 10T1/2, 24 h): 58.5 ± 6.4%

Compound: CC(C)N1CCN(c2ccc(OCC3COC(Cn4cncn4)(c4ccc(Cl)cc4Cl)O3)cc2)CC1 (stereo not drawn) [terconazole, reference compound]
Hh inhibitory activity relative to ITZ ([1]; 1 μM): significant reduction in Hh inhibitory activity

From patent US9650365B2 (UNIVERSITY OF CONNECTICUT, priority 2014, dated 2017)
